Test results as given in patent US20060130266A1, “Dermal drug delivery system” (priority 2004, published 2006).
Marks after values point to notes of the source that are not given here.

Tests used:
[1] = octanol/water; cited from earlier work
[2] = In vitro skin permeation, Franz cell infinite dose study (optimisation studies with MP, BP, CF); conditions: BP; for EF enhancement factor: flux vs untreated skin
[3] = Table 4b, brush A 450 Nm^−2, 20 s, 80 rpm
[4] = Table 4b, brush A 450 Nm^−2, 45 s, 80 rpm
[5] = Table 4b, brush A 750 Nm^−2, 45 s, 80 rpm
[6] = Table 4b, brush A 1200 Nm^−2, 45 s, 80 rpm
[7] = Table 5c, EtoH/PBS (50% ethanol donor solution)
[8] = Table 5c, brush A 450 Nm^−2, 45 s
[9] = Table 5c, brush B 300 Nm^−2, 15 s
[10] = Table 5c, brush B 300 Nm^−2, 25 s
[11] = Table 5c, brush B 450 Nm^−2, 15 s

CCCCOC(=O)c1ccc(O)cc1 [BP, Butyl paraben]
Log P (o/w) [1]: 3.57 | JS flux [2, 3]: 6.60 ± 0.49* 10^−3 μg/cm/s | KP permeability coefficient [2, 3]: 3.30 ± 0.25 10^−5 cm/s | TL lag time [2, 3]: 37.10 ± 2.26 min | EF enhancement factor [2, 3]: 1.74 | JS flux [2, 4]: 7.50 ± 0.75* 10^−3 μg/cm/s | KP permeability coefficient [2, 4]: 3.75 ± 0.37 10^−5 cm/s | TL lag time [2, 4]: 25.22 ± 2.17 min | EF enhancement factor [2, 4]: 1.97 | JS flux [2, 5]: 8.26 ± 0.89* 10^−3 μg/cm/s | KP permeability coefficient [2, 5]: 4.13 ± 0.45 10^−5 cm/s | TL lag time [2, 5]: 26.34 ± 1.48 min | EF enhancement factor [2, 5]: 2.17 | JS flux [2, 6]: 8.62 ± 1.05* 10^−3 μg/cm/s | KP permeability coefficient [2, 6]: 4.31 ± 0.52 10^−5 cm/s | TL lag time [2, 6]: 26.39 ± 1.30 min | EF enhancement factor [2, 6]: 2.26 | JS flux ([2]; Table 4b, delipidised skin): 15.95 ± 1.55* 10^−3 μg/cm/s | KP permeability coefficient ([2]; Table 4b, delipidised skin): 7.98 ± 0.78 10^−5 cm/s | TL lag time ([2]; Table 4b, delipidised skin): 18.58 ± 3 min | EF enhancement factor ([2]; Table 4b, delipidised skin): 4.20 | KP permeability coefficient ([2]; Table 4b, untreated skin): 1.90 ± 0.23 10^−5 cm/s | TL lag time ([2]; Table 4b, untreated skin): 33.47 ± 8.79 min | KP permeability coefficient [2, 7]: 9.24 ± 0.80 10^−5 cm/s | TL lag time [2, 7]: 26.43 ± 5.05 min | EF enhancement factor ([2]; Table 5c, EtoH/PBS): 3.75 | JS flux [2, 8]: 8.38 ± 1.09* 10^−4 μg/cm/s | KP permeability coefficient [2, 8]: 4.19 ± 0.54 10^−5 cm/s | TL lag time [2, 8]: 24.51 ± 5.50 min | EF enhancement factor [2, 8]: 1.69 | JS flux [2, 9]: 6.16 ± 0.89* 10^−4 μg/cm/s | KP permeability coefficient [2, 9]: 3.08 ± 0.44 10^−5 cm/s | TL lag time [2, 9]: 22.65 ± 3.22 min | EF enhancement factor [2, 9]: 1.25 | JS flux [2, 10]: 10.47 ± 0.96* 10^−4 μg/cm/s | KP permeability coefficient [2, 10]: 5.23 ± 0.48 10^−5 cm/s | TL lag time [2, 10]: 23.06 ± 2.19 min | EF enhancement factor [2, 10]: 2.12 | KP permeability coefficient [2, 11]: 6.34 ± 1.03 10^−5 cm/s | TL lag time [2, 11]: 14.55 ± 5.18 min | EF enhancement factor [2, 11]: 2.57 | KP permeability coefficient ([2]; Table 5c, delipidised skin): 10.27 ± 1.43 10^−5 cm/s | TL lag time ([2]; Table 5c, delipidised skin): 8.17 ± 5.41 min | EF enhancement factor ([2]; Table 5c, delipidised skin): 4.16 | KP permeability coefficient ([2]; Table 5c, tapestripped skin): 7.80 ± 1.84 10^−5 cm/s | TL lag time ([2]; Table 5c, tapestripped skin): 34.78 ± 4.44 min | EF enhancement factor ([2]; Table 5c, tapestripped skin): 3.16 | KP permeability coefficient ([2]; Table 5c, untreated skin): 2.47 ± 0.11 10^−5 cm/s | TL lag time ([2]; Table 5c, untreated skin): 35.84 ± 1.98 min
